According to patent US20100008874A1, “SUBSTITUTED PYRIMIDINES, PROCESS FOR THEIR PRODUCTION AND THEIR USE AS EFFECTIVE ABSORBENTS OF UV IRRADIATION” (YISSUM RESEARCH DEVELOPMENT COMPANY, priority 2006, published 2010):
Like-named read-outs stand apart in the source and are kept apart here. Marks after values point to notes of the source that are not given here.

Columns and labels:
[1] = Autoxidation rate in air-saturated phosphate buffer, followed spectrophotometrically; type: physicochemical; settings: air saturated 0.05M phosphate buffer pH 7.0, 1 mM EDTA, 25° C., [Pyrimidine] = 2.4 × 10^−5 M
Description: The autoxidation rate was measured in air-saturated buffer phosphate solutions 0.05 M at pH 7 and 25° C. The solutions contained 1 mM EDTA to minimize catalysis of the oxidation by trace metallic cations. The rate of autoxidation was measured spectrophotometrically by following the decrease of the UV absorbance of the pyrimidines at their respective λ max (Table 1).
This is probably the reason why there was no transient appearance of an absorption maximum around 240-255 nm which is assumed to be due to the intermediacy of oxidized pyrimidine B (Scheme 1), and was found in the autoxidation of isouramil, divicine and related systems. The decrease in the absorbance of 8a-c, followed a reasonably pseudo first order reaction in the pyrimidine concentration (the dissolved oxygen concentration was at least 13 times higher). However, it was found (Winterbourn, C. C.; Cowden, W. B.; Sutton, H. Biochem. Pharmacol. 1989, 38, 611-618) that the reaction mechanism is complex and involves radical intermediates and chain reactions and that the dependency on the pyrimidine concentration is far from simple. Therefore, in accordance with the present invention a different approach was adapted that uses the measured initial reaction rates for checking the quantitative dependency of the oxidation rate on the electron releasing power of the substituent in the C2 position. Table 1 also contains the initial rates for the reactions of isouramil and divicine (8d and 8e) calculated from Winterbourn, C. C.; Cowden, W. B.; Sutton, H. Biochem. Pharmacol. 1989, 38, 611-618; (aerated 0.05M phosphate buffer, pH 7, 23° C., 50 nM DTPA and similar to our pyrimidine concentrations) using ΔH of 60.2 kJ/mole (Chevion et al.^5a).

[2] = UV absorption spectrum (spectral properties); type: physicochemical; settings: footnote b: this work
[3] = tested on: murine erythroleukemic cells; settings: cited from earlier work
[4] = tested on: tumor necrosis factor (TNF); settings: in-vitro and in-vivo; cited from earlier work
[5] = calculated from literature (aerated 0.05M phosphate buffer, pH 7, 23° C., 50 nM DTPA) using ΔH of 60.2 kJ/mole; cited from earlier work
[6] = footnote d: reference; cited from earlier work

Cc1ncc(OC2CCCCO2)c(=O)[nH]1 (centres unmarked) [5a, 2-Methyl-5-(tetrahydro-2H-pyran-2-yloxy)pyrimidin-4(3H)-one]
melting point: 149 to 151 °C

O=c1[nH]c(S)ncc1OC1CCCCO1 (centres unmarked) [5c, 2-Mercapto-5-(tetrahydro-pyran-2-yloxy)-3H-pyrimidin-4-one]
melting point: > 300 °C

Cc1ncc(O)c(=O)[nH]1 [6a, 5-Hydroxy-2-methylpyrimidin-4(3H)-one]
melting point: > 300 °C

O=c1[nH]c(S)ncc1O [6c, 5-Hydroxy-2-mercapto-3H-pyrimidin-4-one]
melting point: > 300 °C

Cc1nc(N=Nc2ccccc2)c(O)c(=O)[nH]1 [7a, 5-Hydroxy-2-methyl-6-phenylazo-3H-pyrimidin-4-one]
melting point: 243 to 245 °C

O=c1[nH]cnc(N=Nc2ccccc2)c1O [7b, 5-Hydroxy-6-phenylazo-3H-pyrimidine-4-one]
melting point: 244 to 245 °C

CSc1nc(N=Nc2ccccc2)c(O)c(=O)[nH]1 [7c, 5-Hydroxy-2-methylsulfanyl-6-phenylazo-3H-pyrimidin-4-one]
melting point: 213 to 215 °C

Cc1nc(N)c(O)c(=O)[nH]1 [CH3, 6-Amino-5-hydroxy-2-methylpyrimidin-4(3H)-one]
Initial rate (autoxidation) [1]: 0.0015^c μM/sec | melting point: > 300 °C | ε at λmax [2]: 16200 | λmax [2]: 275 nm

Nc1nc[nH]c(=O)c1O [H, 6-Amino-5-hydroxypyrimidin-4(3H)-one]
Initial rate (autoxidation) [1]: 0.00087^c μM/sec | melting point: > 300 °C | ε at λmax [2]: 13000 | λmax [2]: 274 nm

Nc1nc(N)c(O)c(O)n1 [NH2, 2,6-diamino-5-hydroxypyrimidin-4-one]
cytotoxicity in combination with carboplatin [3]: synergistic cytotoxicity | effect on lipopolysaccharide-induced release of TNF [4]: enhances | Initial rate (autoxidation) [5]: 0.061^e μM/sec | ε at λmax [6]: 9800 | λmax [6]: 285 nm

Nc1nc(O)[nH]c(=O)c1O [OH, 6-amino-2,5-dihydroxypyrimidin-4-one]
Initial rate (autoxidation) [5]: 0.067^e μM/sec | ε at λmax [6]: 14100 | λmax [6]: 280 nm

CSc1nc(N)c(O)c(=O)[nH]1 [SCH3, 6-Amino-5-hydroxy-2-(methylthio)pyrimidin-4-(3H)-one]
Initial rate (autoxidation) [1]: 0.0097^c μM/sec | ε at λmax [2]: 10800 | λmax [2]: 286 nm
